1 compound from ChEMBL document CHEMBL5729116, “hTRPV1 chemical agents” (2022) can be followed below.

The target in the test is Transient receptor potential cation channel subfamily V member 1 (Homo sapiens, UniProt Q8NER1). As to the kind of experiment: RTX Competition Binding Assay.: Binding studies with [3H]RTX were carried out as follows. The binding assay mixtures were prepared in 1.5 ml centrifuge tubes and consisted of a fixed concentration (approximately 2 nM) of [3H]RTX (37 Ci/mmol specific activity, PerkinElmer Life Sciences), various concentrations of competing ligands, and […] of membranes from induced CHO-hTRPV1 expressing cells (approximately 1-3×10^6 cells) in Dulbecco's phosphate buffered saline (DPBS, with Ca2+ & Mg2+) for a total volume of 350 μl. The assay mix contained bovine serum albumin at a final concentration of 0.25 mg/ml (Cohn fraction V; Sigma-Aldrich, St. Louis, Mo.). In each set of experiments, nonspecific binding were determined in the presence of 200 nM non-radioactive RTX. The binding reaction was initiated by placing the assay mixture in a 37° C. shaking water bath for 60 minutes (−30 rpm). The assay mixture was then chilled on ice for 2-3 min before adding 100 μl of α1-acid glycoprotein (2 mg/ml; Sigma-Aldrich) and mixed thoroughly. The tubes were kept on ice for an additional 10 min. The bound and free ligands were then separated by centrifugation (12,200 rpm for 15 minutes) in a Beckman Coulter centrifuge Allegra 21R. 200 μl of supernatant was collected for determination of free ligand. The remainder was removed by aspiration.
Chain of Transient receptor potential cation channel subfamily V member 1 (Q8NER1 whole entry): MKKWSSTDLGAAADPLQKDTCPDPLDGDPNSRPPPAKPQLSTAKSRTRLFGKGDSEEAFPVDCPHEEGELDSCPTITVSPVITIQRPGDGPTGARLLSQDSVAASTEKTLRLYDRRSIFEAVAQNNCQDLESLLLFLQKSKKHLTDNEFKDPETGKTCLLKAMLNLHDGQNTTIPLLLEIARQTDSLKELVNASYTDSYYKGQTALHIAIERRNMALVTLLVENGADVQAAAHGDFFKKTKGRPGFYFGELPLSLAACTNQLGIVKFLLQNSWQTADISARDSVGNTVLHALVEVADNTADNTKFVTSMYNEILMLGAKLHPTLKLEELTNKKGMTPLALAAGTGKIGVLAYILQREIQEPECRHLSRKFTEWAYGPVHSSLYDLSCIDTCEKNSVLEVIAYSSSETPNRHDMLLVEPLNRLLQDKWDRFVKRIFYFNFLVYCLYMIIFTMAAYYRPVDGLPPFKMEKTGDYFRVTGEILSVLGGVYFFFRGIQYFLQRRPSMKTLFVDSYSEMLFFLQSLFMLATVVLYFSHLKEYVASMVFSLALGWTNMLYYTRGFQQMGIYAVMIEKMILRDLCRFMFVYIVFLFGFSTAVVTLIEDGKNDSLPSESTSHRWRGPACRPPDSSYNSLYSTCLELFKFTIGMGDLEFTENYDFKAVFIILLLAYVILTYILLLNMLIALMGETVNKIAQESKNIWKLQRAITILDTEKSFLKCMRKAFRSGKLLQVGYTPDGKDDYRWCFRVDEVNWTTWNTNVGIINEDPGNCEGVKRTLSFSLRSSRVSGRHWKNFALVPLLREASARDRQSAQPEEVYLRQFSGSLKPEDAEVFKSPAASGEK

As usually defined, the Ki is a measure of affinity in units of concentration, obtained from inhibition or displacement. Turning to `O=C(Nc1cccc(C(F)(F)F)c1)Nc1ccc([N+](=O)[O-])cc1Cl`, the Ki amounted to 2570 nM.
